Source: patent publication US4225619A, “Substituted fluoracylresorcinols” (Boehringer Ingelheim GmBH, priority 1976, dated 1980)
In brackets after ≈: the same amount, converted by molar mass.

Columns and labels:
[1] = tested on: Trichophyton mentagrophytes AT CC 9129; experiment: Serial dilution test; type: cell-based; conditions: ATCC9129, 168 h, 27° C. for 7 days, read-out: MIC, S.D.T., Trichophyton mentagrophytes
Method: (§1) The inhibitory effect on bacteria and fungi was examined by the serial dilution test and the agar diffusion test (hole-test). As bacteria were used: Staphylococcus aureus SG 511, Streptococcus Aronson, Streptococcus pyogenes At CC 86 68; as fungi: Candida albicans AT CC 10231, Trichophyton mentagrophytes AT CC 9129 and Aspergillus niger.
(§2) 3. Sabouraud broth: for C. alb., Trich. mnt., A. niger
(§3) The age of the primary cultures is 24 hours for bacteria and 14 days for fungi. The standardization of the suspension of microorganisms is effected using a photometer according to Eppendorf (test tube .phi.14 mm, filter 546 nm) and a suspension for comparison consisting of barium sulfate, this suspension being created by adition of 3.0 ml of 1% barium chloride solution to 97 ml of 1% sulfuric acid. After the standardization the bacteria were further diluted to a concentration of 1:1000 by means of sodium chloride solution, the fungi were used in an undiluted state.
(§4) 40 mgm of the substance were put into a 10 ml measuring flask and filled up to the mark with the solvent (corresponds to a dilution of 1:250=4000 μg/ml). The further dilution series was standardized with distilled water or the respective solvent and the following substance concentrations were prepared: 1000; 250; 62.5 μg/ml.
(§5) The tubes were filled with 4.9 ml of the corresponding liquid nutrient medium. Then 0.1 ml of the substance dilution prepared above was added to each tube, so that the mentioned final concentrations were present. Finally each tube was inoculated with 0.1 ml of the standardized suspension of microorganisms. Control tests merely using the solvent are to be carried out simultaneously.
(§6) Bacteria were incubated at 37° C. for 18-20 hours and fungi at 27° C. for 7 days.
(§7) The measurement is carried out macroscopically defining the minimal inhibitory concentration (the lowest still microbiostatically effective concentration).

[2] = tested on: Candida albicans AT CC 10231; experiment: Serial dilution test; type: cell-based; conditions: for MIC: Candida albicans, ATCC10231, 168 h, 27° C. for 7 days, read-out: MIC, S.D.T., Candida albicans
Method: as §1, §2, §3, §4, §5, §6, §7

Aspergillus niger = experiment: Serial dilution test; type: cell-based; conditions: for MIC: Aspergillus niger, 168 h, 27° C. for 7 days, read-out: MIC, S.D.T., Aspergillus niger
Method: as §1, §2, §3, §4, §5, §6, §7

[3] = tested on: Staphylococcus aureus SG 511; experiment: Agar diffusion test (hole-test); type: cell-based; conditions: SG511, 18-20 hours at 37° C., read-out: MIC, A.D.T., Staphylococcus aureus SG 511
Method: as §1
1. Meat extract agar: for St. aureus SG 511
as §3, with “addition” for “adition”, “St. aureus SG 511 was” for “the bacteria were further”, “diluted” for “diluted to a concentration of”, “1:1000 and Sc. pyogenes and Aronson 1:100” for “1:1000”, “solution. The” for “solution, the”
(§8) 40 mgm of the substance were put into a 10 ml measuring flask and filled up to the mark with the solvent (corresponds to a dilution of 1:250=4000 μg/ml).
(§9) The dilutions to the concentrations under test were effected with distilled water or the respective solvent.
(§10) 19 ml of the nutrient medium were filled into sterile Petri dishes of a diameter of 8 cm and dried. Subsequently the agar plates were charged with 4 ml of seed agar. 100 ml of seed agar contain 1.25 ml of the suspension of microorganisms, an agar plate thus containing 0.05 ml of the suspension of microorganisms. After solidification of the agar, 5 holes of a diameter of 5 mm were punched into the plates and filled with 0.05 ml of the correspondingly concentrated substance solution.
(§11) Control tests merely using the solvent are to be carried out simultaneously.
as §6
(§12) The diameter of the area of inhibition in mm was measured after having deducted the diameter of the hole.

Streptococcus Aronson = experiment: Agar diffusion test (hole-test); type: cell-based; conditions: 18-20 hours at 37° C., read-out: MIC, A.D.T., Streptococcus Aronson
Method: as §1
(§13) 2. Glucose agar: for Sc. Aronson and St. pyogenes Recipe see meat extract agar. After sterilization 1 weight percent of glucose is added as a sterile 50% solution.
as §3, with “addition” for “adition”, “St. aureus SG 511 was” for “the bacteria were further”, “diluted” for “diluted to a concentration of”, “1:1000 and Sc. pyogenes and Aronson 1:100” for “1:1000”, “solution. The” for “solution, the”
as §8, §9, §10, §11, §6, §12

[4] = target: glucose-6-phosphate-dehydrogenase; experiment: Inhibition of glucose-6-phosphate-dehydrogenase (G6PDH); type: biochemical; conditions: for G6PDH-inhibition Ed50, Immediate Inhibition: 25° C. for 5 minutes preincubation; for G6PDH-inhibition Ed50, Inhibition of Incubation: 37° C. for 60 minutes preincubation
Method: Measurement of the inhibition of the glucose-6-phosphatedehydrogenase
The equilibrium was observed:
Glucose-6-phosphate+NADP^+ G6-DH gluconic
acid-6-phosphate+NADPH+H^+
(NADP=nicotinamide-adenine-dinycleotide-phosphate, G6P-DH=gluconic acid-6-phosphate-dehydrogenase)
The formation velocity of NADPH is a measure for the enzyme activity; it may be observed by means of the extinction increase at 340, 334 or 366 nm per unit of time.
0.025 ml of glucose-6-phosphate-dehydrogenase (Boehringer Mannheim) were filled up to 10 ml of distilled water (solution I). 100 mgm of nicotinamide-adenine-dinucleotide-phosphate were dissolved in 13 ml of distilled water (solution II). 47.2 mgm of glucose-6-phosphate were dissolved in further 10 ml of distilled water (solution 3). Simultaneously a buffer solution (solution IV) was prepared as follows: 0.28 gm of triethanolamine-hydrochloride and 1.461 gm of ethylene diaminotetraacetic acid-disodium salt were dissolved in 1 liter of distilled water and adjusted to a pH of 7.6 with sodium hydroxide solution. The substance under test was dissolved in dimethyl formamide or ethanol (solution V). Tested concentrations: 50; 25; 12.5; 6.25; 3.125; 1.56 and 0.78 μg/ml.
0.1 ml of solution I, 0.1 ml of solution II, 2.67 ml of solution IV and 0.03 ml of solution V were mixed and kept at 25° C. for 5 minutes. Then 0.1 ml of solution III was added, mixed and the alteration of extinction was determined spectrophotometrically at 366 nm for 3 minutes.
0.1 ml of solution I, 0.1 ml of solution II, 2.67 ml of solution IV and 0.03 ml of solution V were mixed and kept at 37° C. for 60 minutes. Then 0.1 ml of solution III was added, mixed and the alteration of extinction was measured spectrophotometrically at 366 nm for 3 minutes.
The inhibitory values were calculated from the average values of three measurements (alteration of extinction per minute) compared with controls, which received the pure solvent as the inhibitory solution. Then the ED50 was calculated according to Reed and Muench from the inhibitory values for the various concentrations.

[5] = tested on: Streptococcus pyogenes At CC 86 68; experiment: Agar diffusion test (hole-test); type: cell-based; conditions: ATCC8668, 18-20 hours at 37° C., read-out: MIC, A.D.T., Streptococcus pyogenes
Method: as §1, §13
as §3, with “addition” for “adition”, “St. aureus SG 511 was” for “the bacteria were further”, “diluted” for “diluted to a concentration of”, “1:1000 and Sc. pyogenes and Aronson 1:100” for “1:1000”, “solution. The” for “solution, the”
as §8, §9, §10, §11, §6, §12

[6] = reduced growth at this concentration

| SMILES | MIC [1] [µg/mL] | MIC [2] [µg/mL] | MIC (Aspergillus niger) [µg/mL] | MIC [3] [µg/mL] | MIC (Streptococcus Aronson) [µg/mL] | G6PDH-inhibition Ed50, Immediate Inhibition [4] [µg/mL] | G6PDH-inhibition Ed50, Inhibition of Incubation [4] [µg/mL] | MIC [5] [µg/mL] | Concentration with reduced growth (value in brackets), S.D.T., Candida albicans [2, 6] [µg/mL] | Concentration with reduced growth (value in brackets), S.D.T., Aspergillus niger (Aspergillus niger; [6]) [µg/mL] |
| --- | --- | --- | --- | --- | --- | --- | --- | --- | --- | --- |
| O=C(c1ccc(O)cc1O)C(F)(F)F [A, 2,4-Dihydroxy-trifluoroacetophenone, reference compound] | 20 (≈ 97 µM) | 80 (≈ 388 µM) | 20 (≈ 97 µM) | 1000 (≈ 4850 µM) | 1000 (≈ 4850 µM) | > 50 | 33 |  |  |  |
| CCc1cc(C(=O)C(F)(F)F)c(O)cc1O [B, 5-Ethyl-2,4-dihydroxy-trifluoroacetophenone, reference compound] | 5 (≈ 21.4 µM) | 20 (≈ 85.4 µM) | 20 (≈ 85.4 µM) | 250 (≈ 1070 µM) | 250 (≈ 1070 µM) | 34.5 | 30 | 250 (≈ 1070 µM) |  |  |
| CCc1c(O)ccc(C(=O)C(F)(F)F)c1O [C, 3-Ethyl-2,4-dihydroxy-trifluoroacetophenone, reference compound] | 1.25 (≈ 5.34 µM) | 20 (≈ 85.4 µM) | 5 (≈ 21.4 µM) | 62.5 (≈ 267 µM) | 62.5 (≈ 267 µM) | 37.5 | 20 | 62.5 (≈ 267 µM) |  |  |
| COc1ccc(C(=O)C(F)(F)F)c(OC)c1 [D, 2,4-Dimethoxy-trifluoroacetophenone, reference compound] | > 80 | > 80 | > 80 | > 4000 | > 4000 | > 50 | > 50 | > 4000 |  |  |
| CC(C)Cc1c(O)ccc(C(=O)C(F)(F)F)c1O [F, 2,4-Dihydroxy-3-iso-butyl-trifluoroacetophenone] | 1.25 (≈ 4.77 µM) | 20 (≈ 76.3 µM) | 20 (≈ 76.3 µM) | 62.5 (≈ 238 µM) | ≤ 15.6 | 37.7 | 27.7 | ≤ 15.6 |  |  |
| CC1CCC(c2c(O)ccc(C(=O)C(F)(F)F)c2O)CC1 (centres unmarked) [H, 2,4-Dihydroxy-3-(4'-methyl)-cyclohexyl-trifluoro-acetophenone] | 1.25 (≈ 4.14 µM) |  |  | ≤ 15.6 | ≤ 15.6 |  |  | ≤ 15.6 | 80 | 80 |
| CC(C)c1c(O)ccc(C(=O)C(F)(F)F)c1O [P, 2,4-Dihydroxy-3-isopropyl-trifluoroacetophenone] |  |  |  | 62.5 (≈ 252 µM) | ≤ 15.6 | 14.8 | 9.9 | 62.5 (≈ 252 µM) |  |  |
